Patent publication US20030162792A1, “Indole derivatives useful for the treatment of CNS disorders” (H. Lundbeck A/S, priority 2000, published 2003)
Structures can show the parent of a compound that is named as a salt. Where two headings read alike, the source gives them in different places.

Tests used:
[1] = target: T1, human cloned dopamine D4.2 receptors expressed in CHO-cells (Homo sapiens, UniProt P21917, DEL265-296); test: Inhibition of the binding of [3H]YM-09151-2 to human dopamine D4.2 receptors; details: for D4-bind. % inhibition of binding: at 50 nM
T1 construct: expressed in transfected cells; host or cells: CHO cells
T1 sequence (P21917 with tags, fused parts or gaps DEL265-296): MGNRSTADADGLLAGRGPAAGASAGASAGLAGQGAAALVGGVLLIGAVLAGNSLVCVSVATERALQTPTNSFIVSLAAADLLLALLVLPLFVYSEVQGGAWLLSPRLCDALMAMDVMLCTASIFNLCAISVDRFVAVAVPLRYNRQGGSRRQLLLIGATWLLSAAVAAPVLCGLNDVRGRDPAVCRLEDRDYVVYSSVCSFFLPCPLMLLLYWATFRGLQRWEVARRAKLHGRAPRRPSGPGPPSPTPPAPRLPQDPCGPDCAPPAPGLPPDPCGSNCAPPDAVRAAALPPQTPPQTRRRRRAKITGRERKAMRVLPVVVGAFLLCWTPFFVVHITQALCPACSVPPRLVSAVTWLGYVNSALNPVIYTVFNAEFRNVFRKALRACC
Text: Method modified from NEN Life Science Products, Inc., technical data certificate PC2533-10/96.

5-HT2A receptors = target: T2, 5-HT2A receptors (Rattus norvegicus, UniProt P14842); test: Inhibition of the binding of [3H]Ketanserin to 5-HT2A receptors
T2 construct: membranes from rat brain (cortex) in vitro; from tissue; host or cells: rat brain cortex membranes
Procedure: Inhibition of the Binding of [^3H]Ketanserin to 5-HT2A Receptors
The compounds were tested with respect to their affinity for 5-HT2A receptors by determining their ability to inhibit the binding of [^3H]Ketanserin (0.50 nM) to membranes from rat brain (cortex) in vitro. Method described in Sanchez et al. Drug Dev. Res. 1991, 22, 239-250.

D4 receptor = target: T3, D4 receptor (Homo sapiens, UniProt P21917); details: various in vitro efficacy assays; cited from earlier work
T3 sequence (P21917 1-419): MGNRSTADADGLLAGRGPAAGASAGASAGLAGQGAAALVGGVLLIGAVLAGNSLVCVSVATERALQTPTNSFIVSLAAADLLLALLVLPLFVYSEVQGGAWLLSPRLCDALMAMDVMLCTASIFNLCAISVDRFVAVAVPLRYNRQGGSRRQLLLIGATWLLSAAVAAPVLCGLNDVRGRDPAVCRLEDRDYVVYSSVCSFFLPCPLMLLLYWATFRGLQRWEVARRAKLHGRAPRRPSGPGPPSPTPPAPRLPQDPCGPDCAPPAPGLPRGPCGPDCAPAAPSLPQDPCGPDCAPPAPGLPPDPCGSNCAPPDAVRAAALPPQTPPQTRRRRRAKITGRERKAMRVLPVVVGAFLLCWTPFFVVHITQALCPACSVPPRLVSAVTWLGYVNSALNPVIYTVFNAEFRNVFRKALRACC

[2] = [3H]Ketanserin 0.50 nM, membranes from rat brain (cortex), read-out: 5-HT2A-bind. IC50

T2 sequence (P14842 whole entry): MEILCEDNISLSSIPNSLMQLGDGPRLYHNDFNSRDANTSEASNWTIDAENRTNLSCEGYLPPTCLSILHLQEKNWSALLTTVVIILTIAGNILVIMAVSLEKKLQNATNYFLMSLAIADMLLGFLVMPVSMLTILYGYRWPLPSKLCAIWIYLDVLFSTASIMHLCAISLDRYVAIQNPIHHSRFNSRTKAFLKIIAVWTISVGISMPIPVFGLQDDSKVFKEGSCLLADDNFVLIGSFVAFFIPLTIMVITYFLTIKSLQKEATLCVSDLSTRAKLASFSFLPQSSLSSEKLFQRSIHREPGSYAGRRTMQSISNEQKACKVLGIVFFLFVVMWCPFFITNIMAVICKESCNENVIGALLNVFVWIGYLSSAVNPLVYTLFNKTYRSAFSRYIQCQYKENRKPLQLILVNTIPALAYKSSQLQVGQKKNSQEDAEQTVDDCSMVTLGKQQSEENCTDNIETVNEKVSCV

| Compound | IC50 (5-HT2A receptors; [2]) | D4-bind. % inhibition of binding ([1]; [3H]YM-09151-2 0.06 nM) | further results |
| --- | --- | --- | --- |
| O=S1(=O)c2cccc3cccc(c23)N1CCCN1CCN(c2ccc3[nH]ccc3c2)CC1 [Compound 1a, 2-{3-[4-(1H-Indol-5-yl)piperazin-1-yl]propan-1-yl}-2H-naphtho[1,8-cd]isothiazole 1,1-dioxide, Hydrochloride] | 0.79 nM |  | IC50 ([1]; [3H]YM-09151-2 0.06 nM, membranes of CHO cells, read-out: D4-bind. IC50): 1.9 nM |
| CC(C)Oc1cccnc1N(C)C1CCN(Cc2ccccc2)CC1 [Compound U-101958] |  |  | Functional activity at D4 receptor (literature) (D4 receptor): partial D4 receptor agonists |
| O=S1(=O)c2cccc3cccc(c23)N1CCCN1CC=C(c2ccc3[nH]ccc3c2)CC1 [Compound 1c, 2-{3-[4-(1H-Indol-5-yl)-3,6-dihydro-2H-pyridin-1-yl]propan-1-yl}-2H-naphtho[1,8-cd]isothiazole 1,1-dioxide, Hydrochloride] |  |  | IC50 [1]: 0.73 nM; IC50 (5-HT2A receptors): 0.48 nM |
| O=S1(=O)c2cccc3cccc(c23)N1CCCN1CCC(c2ccc3[nH]ccc3c2)CC1 [Compound 1d, Hydrochloride] | 9.2 nM | 83% (50 nM) |  |
| Cl.O=S1(=O)c2cccc3cccc(c23)N1CCCN1CCN(c2ccc3cc[nH]c3c2)CC1 [Compound 1b, 2-{3-[4-(1H-Indol-6-yl)piperazin-1-yl]propan-1-yl}-2H-naphtho[1,8-cd]isothiazole 1,1-dioxide, Hydrochloride] | 1.8 nM | 91% (50 nM) |  |
